Several values for one entry are separate records, joined by “and”; a condition that tells them apart may be missing. Equal entries are not always repeated. Positions of bridges follow the written chain, without caps; N, C: chain ends. Non-standard residues stand in square brackets, D forms with d. Residues, ends and D or L forms follow the SMILES beside them. *: point of attachment. FITC = O=C1OC2(c3ccc(O)cc3Oc3cc(O)ccc32)c2ccc(NC(=S)*)cc21; R8 = C=CCCCCCC[C@@](C)(N)C(=O)O; S5 = C=CCCC[C@](C)(N)C(=O)O; AEEA = NCCOCCOCC(=O)O
Legend:
[1] = CD spectroscopy, secondary structure content; assay type: physicochemical; details: fluorescein-labeled peptide 75 μM, 10 mM sodium phosphate pH 7.4, CDNN/PEPFIT; for Helix (α-helicity): unbound
Procedure: Spectra of fluorescein-labeled peptides were recorded with a J-715 circular dichroism spectrometer (Jasco) using a stoppered quartz cuvette (1 mm; Hellma). Peptide samples (c = 75 μM) were prepared in buffer: 10 mM disodium hydrogen phosphate, pH 7.4. For each sample, 10 CD spectra were measured between λ = 190 and 260 nm with continuous scan mode (10 mdeg sensitivity, 1.0 nm resolution, 1.0 nm bandwidth, 2 s integration time, 50 nm/min scan rate). Obtained spectra were averaged, then subtracted from a reference buffer spectrum and smoothed using a fast Fourier transform filter (FFT filter). The mean residue ellipticity (Θ) (deg·cm^2·dmol^−1·10^4) was calculated using Formula (2) and plotted against wavelength (λ) (nm). The ratio of secondary structure elements was calculated with CDNN using the PEPFIT set of reference spectra for secondary structure determination ([45],[46]):(2) where [Θ]m = mean molar ellipticity per peptide bond (degree·cm^2·dmol^−1·10^4), Θ = measured ellipticity (degree), d = optical path length (cm), cg = mass concentration (g·l^−1), MRW = mean residue weight, M = molar mass of the peptide (g·mol^−1) and N = number of peptide bonds.

proteinase K = proteinase K (Parengyodontium album, UniProt P06873); experiment: Protease stability assay; assay type: in vitro ADME; details: proteinase K 10 μg·ml^−1, fluorescein-labeled peptide 50 μM, 10 mM Tris pH 8.0, 150 mM NaCl, room temperature, HPLC absorbance 210 nm, exponential decay fit
Chain of proteinase K (P06873 106-384): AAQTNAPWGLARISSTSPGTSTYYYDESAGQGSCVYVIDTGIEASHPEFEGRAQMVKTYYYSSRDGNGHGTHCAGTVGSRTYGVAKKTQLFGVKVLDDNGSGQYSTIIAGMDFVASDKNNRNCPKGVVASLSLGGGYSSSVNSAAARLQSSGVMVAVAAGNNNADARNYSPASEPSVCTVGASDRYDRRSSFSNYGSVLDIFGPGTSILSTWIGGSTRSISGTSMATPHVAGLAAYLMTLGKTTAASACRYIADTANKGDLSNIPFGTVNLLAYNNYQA
Procedure: Protease stability assays were performed in analogy to a previously published protocol ([47]). Stocks of fluorescein-labeled peptides were prepared to a concentration of 55.5 μM in assay buffer (10 mM Tris, pH 8.0, 150 mM NaCl) and separately stocks of proteinase K also in assay buffer (c = 100 μg·ml^−1). To begin each experiment, peptide and proteinase K stocks were mixed (final concentrations: c = 10 μg·ml^−1 proteinase K, c = 50 μM fluorescein-labeled peptide; final volume = 500 μl) and incubated at room temperature. At each time point, 50 μl of the reaction mixture was quenched by adding 100 μl of TFA/ACN/H2O (v/v/v, 1:49:49) and subsequently incubated for 2 min on ice. Following centrifugation (15 min, 13200 rpm, 4°C), samples (45 μl) were monitored by analytical HPLC using a linear gradient of 10–60% HPLC solvent B over 20 min. The amount of remaining peptide was quantified via absorbance at λ = 210 nm (intact peptide (%)) and plotted against time (t) (h). Half-life (t1/2) was calculated by fitting the data to an exponential decay using the software Prism 5.0 (GraphPad).

pal-RNA duplex = experiment: ITC of N-terminally acetylated peptides with pal-RNA duplex; assay type: binding
Procedure: Isothermal titration calorimetry (ITC) was conducted using a MicroCal VP-ITC (Malvern Panalytical). Before measurement, oligonucleotide and peptide samples were dissolved in PBS and degassed using a ThermoVac (Malvern Panalytical) and heated to 30°C. N-terminally acetylated peptides (c = 3–12 μM) were then transferred into the sample cell and oligonucleotides (c = 12–72 μM) were transferred into the syringe. 35 Injections per measurement were performed at 30°C (8 μl injection volume, 2 s injection time, 180 s spacing, high feedback mode) with an initial delay of 60 s and a stirring speed of 307 rpm. Measurements were performed in triplicate. Using the MicroCal LLC ITC software (Origin; OriginLab Corporation), the heat associated with each injection was calculated by integrating the area under the curve in microcalories per second [μca/s] versus time [min] for each injection and then normalized to concentration. A ‘single set of identical binding sites’ model was used to fit the binding curves from which thermodynamic binding parameters (ΔG, ΔH, ΔS, N and Kd) were obtained.

ds pal-RNA = experiment: EMSA with ds pal-RNA; assay type: binding; details: fluorescein-labeled peptide 6 μM, RNA 3 μM, 10% native PAGE, 4°C
Procedure: Electrophoretic mobility shift assays (EMSAs) were performed using a Bio-Rad Mini-Protean gel system paired with a direct current (DC) power source (PowerPac™ HC, Bio-Rad). Typically, 6 μl solutions containing ds RNA (c = 3 μM) and fluorescein-labeled peptide (c = 6 μM) were incubated in binding buffer (10 mM Tris (pH 8.0), 0.5 mM EDTA, 12.5% glycerol and 150 mM KCl) at 4°C for 1 h. After incubation, bound RNA was resolved from peptide-free RNA using 10% non-denaturing polyacrylamide gels at 120 V in running buffer (25 mM Tris (pH 8.0), 200 mM glycine, 20 mM NaCl) at 4°C for 1 h. Visualization of fluorescent gel-bound species was conducted using a Typhoon Trio + fluorescence scanner (GE Healthcare Life Sciences). For nucleic acid visualization, gels were stained using 2 μl of SYBR™ gold nucleic acid gel dye (Molecular Probes) in 20 ml of TAE buffer (40 mM Tris, 1 mM EDTA, 20 mM acetic acid) for 45 min at RT before being visualized using a FluorChem™ gel documentation system (Alpha Innotech). To assess B3 binding to different ds RNA sequences (Supplementary Figure S20), 6 μl solutions containing hairpin RNA (c = 1 μM) and fluorescein-labeled B3 (c = 2 μM) were incubated in binding buffer (TAE and 10% glycerol) at RT for 1 h, and then resolved using 15% non-denaturing polyacrylamide gels (acrylamide/bis-acrylamide (19:1) in TAE) at 150 V in running buffer (TAE) at 4°C for 1.5 h. Visualization of fluorescent gel-bound species was conducted using a Bio-Rad ChemiDoc (Bio-Rad). Subsequently, gels were stained with SYBR™ gold nucleic acid gel dye (Invitrogen) as described above and visualized using the same imaging system. To assess B3 binding to pre–miR-21 (Supplementary Figure S24), the RNA was prepared at a fixed concentration (c = 1 μM) and incubated with varying concentrations of fluorescein-labeled B3 (c = 0–5 μM) in binding buffer (TAE and 10% glycerol) at RT for 1 h. After incubation, bound nucleic acid complexes were resolved using 15% non-denaturing polyacrylamide gels (acrylamide/bis-acrylamide (19:1) in TAE) at 150 V in running buffer (TAE) at 4°C for 1.5 h, followed by visualization and staining with SYBR™ gold nucleic acid gel dye (Invitrogen).

SMILES	half-life t1/2	Random coil [1]	β-Sheet [1]	β-Turn [1]	Helix (α-helicity) [1]	Half-life (t1/2) (proteinase K)	Kd (pal-RNA duplex; N-terminally acetylated peptide, PBS pH 7.4, 30°C, single set of identical binding sites model, triplicate, errors 1σ)	fold increased affinity compared to linear peptide wt33 (pal-RNA duplex; unlabeled analogs, pal-RNA)	binding to ds pal-RNA in EMSA (ds pal-RNA)
CC(C)C[C@H](NC(=O)[C@H](CCC(=O)O)NC(=O)[C@H](CO)NC(=O)[C@H](CCCNC(=N)N)NC(=O)[C@H](CCCNC(=N)N)NC(=O)[C@H](CCC(N)=O)NC(=O)[C@H](CCC(=O)O)NC(=O)[C@H](CO)NC(=O)[C@@H]1CCCN1C(=O)[C@H](CO)NC(=O)[C@H](CCCCN)NC(=O)[C@H](Cc1c[nH]cn1)NC(=O)CNC(=O)[C@H](CCCNC(=N)N)NC(=O)[C@H](CCC(=O)O)NC(=O)[C@H](CCCCN)NC(=O)[C@H](CCCNC(=N)N)NC(=O)[C@H](CC(N)=O)NC(=O)[C@]1(C)CCCC=CCCCCCC[C@@](C)(NC(=O)[C@H](CCC(N)=O)NC(=O)[C@H](CCCCN)NC(=O)[C@H](CCCCN)NC(=O)COCCOCCNC(=S)Nc2ccc3c(c2)C(=O)OC32c3ccc(O)cc3Oc3cc(O)ccc32)C(=O)N[C@@H](CCC(N)=O)C(=O)N[C@@H](CCCNC(=N)N)C(=O)N[C@@H](CCCCN)C(=O)N[C@@H](CCCNC(=N)N)C(=O)N[C@@H](Cc2c[nH]cn2)C(=O)N[C@@H](CCCCN)C(=O)N1)C(=O)N[C@@H](Cc1c[nH]c2ccccc12)C(=O)N[C@@H](Cc1c[nH]cn1)C(=O)N[C@@H](C)C(=O)N[C@@H](CCCNC(=N)N)C(N)=O [A1] ({FITC-AEEA}-KKQ[R8]QRKRHK[S5]NRKERGHKSPSEQRRSELWHAR-NH2; staple 4-11)	3 min	51.4%	2.9%	9.6%	39.1%	2.4 min			
CC(C)C[C@H](NC(=O)[C@H](CCC(=O)O)NC(=O)[C@H](CO)NC(=O)[C@H](CCCNC(=N)N)NC(=O)[C@H](CCCNC(=N)N)NC(=O)[C@H](CCC(N)=O)NC(=O)[C@H](CCC(=O)O)NC(=O)[C@H](CO)NC(=O)[C@@H]1CCCN1C(=O)[C@H](CO)NC(=O)[C@H](CCCCN)NC(=O)[C@H](Cc1c[nH]cn1)NC(=O)CNC(=O)[C@H](CCCNC(=N)N)NC(=O)[C@H](CCC(=O)O)NC(=O)[C@H](CCCCN)NC(=O)[C@H](CCCNC(=N)N)NC(=O)[C@H](CC(N)=O)NC(=O)[C@]1(C)CCCC=CCCC[C@](C)(NC(=O)[C@H](CCCNC(=N)N)NC(=O)[C@H](CCC(N)=O)NC(=O)[C@H](C)NC(=O)[C@H](CCC(N)=O)NC(=O)[C@H](CCCCN)NC(=O)[C@H](CCCCN)NC(=O)COCCOCCNC(=S)Nc2ccc3c(c2)C(=O)OC32c3ccc(O)cc3Oc3cc(O)ccc32)C(=O)N[C@@H](CCCNC(=N)N)C(=O)N[C@@H](Cc2c[nH]cn2)C(=O)N[C@@H](CCCCN)C(=O)N1)C(=O)N[C@@H](Cc1c[nH]c2ccccc12)C(=O)N[C@@H](Cc1c[nH]cn1)C(=O)N[C@@H](C)C(=O)N[C@@H](CCCNC(=N)N)C(N)=O [A2] ({FITC-AEEA}-KKQAQR[S5]RHK[S5]NRKERGHKSPSEQRRSELWHAR-NH2; staple 7-11)	3 min	51.3%	21.6%	7.9%	21.9%	2.3 min			
CC(C)C[C@H](NC(=O)[C@H](CCC(=O)O)NC(=O)[C@H](CO)NC(=O)[C@H](CCCNC(=N)N)NC(=O)[C@H](CCCNC(=N)N)NC(=O)[C@H](CCC(N)=O)NC(=O)[C@H](CCC(=O)O)NC(=O)[C@H](CO)NC(=O)[C@@H]1CCCN1C(=O)[C@H](CO)NC(=O)[C@H](CCCCN)NC(=O)[C@H](Cc1c[nH]cn1)NC(=O)CNC(=O)[C@H](CCCNC(=N)N)NC(=O)[C@]1(C)CCCC=CCCC[C@](C)(NC(=O)[C@H](CCCCN)NC(=O)[C@H](Cc2c[nH]cn2)NC(=O)[C@H](CCCNC(=N)N)NC(=O)[C@H](CCCCN)NC(=O)[C@H](CCCNC(=N)N)NC(=O)[C@H](CCC(N)=O)NC(=O)[C@H](C)NC(=O)[C@H](CCC(N)=O)NC(=O)[C@H](CCCCN)NC(=O)[C@H](CCCCN)NC(=O)COCCOCCNC(=S)Nc2ccc3c(c2)C(=O)OC32c3ccc(O)cc3Oc3cc(O)ccc32)C(=O)N[C@@H](CC(N)=O)C(=O)N[C@@H](CCCNC(=N)N)C(=O)N[C@@H](CCCCN)C(=O)N1)C(=O)N[C@@H](Cc1c[nH]c2ccccc12)C(=O)N[C@@H](Cc1c[nH]cn1)C(=O)N[C@@H](C)C(=O)N[C@@H](CCCNC(=N)N)C(N)=O [A3] ({FITC-AEEA}-KKQAQRKRHK[S5]NRK[S5]RGHKSPSEQRRSELWHAR-NH2; staple 11-15)	3 min	52.8%	10.6%	10.1%	24.0%	3.5 min			
CC(C)C[C@H](NC(=O)[C@]1(C)CCCC=CCCC[C@](C)(NC(=O)[C@H](CCC(=O)O)NC(=O)[C@H](CO)NC(=O)[C@@H]2CCCN2C(=O)[C@H](CO)NC(=O)[C@H](CCCCN)NC(=O)[C@H](Cc2c[nH]cn2)NC(=O)CNC(=O)[C@H](CCCNC(=N)N)NC(=O)[C@H](CCC(=O)O)NC(=O)[C@H](CCCCN)NC(=O)[C@H](CCCNC(=N)N)NC(=O)[C@H](CC(N)=O)NC(=O)[C@]2(C)CCCC=CCCCCCC[C@@](C)(NC(=O)[C@H](CCC(N)=O)NC(=O)[C@H](CCCCN)NC(=O)[C@H](CCCCN)NC(=O)COCCOCCNC(=S)Nc3ccc4c(c3)C(=O)OC43c4ccc(O)cc4Oc4cc(O)ccc43)C(=O)N[C@@H](CCC(N)=O)C(=O)N[C@@H](CCCNC(=N)N)C(=O)N[C@@H](CCCCN)C(=O)N[C@@H](CCCNC(=N)N)C(=O)N[C@@H](Cc3c[nH]cn3)C(=O)N[C@@H](CCCCN)C(=O)N2)C(=O)N[C@@H](CCCNC(=N)N)C(=O)N[C@@H](CCCNC(=N)N)C(=O)N[C@@H](CO)C(=O)N1)C(=O)N[C@@H](Cc1c[nH]c2ccccc12)C(=O)N[C@@H](Cc1c[nH]cn1)C(=O)N[C@@H](C)C(=O)N[C@@H](CCCNC(=N)N)C(N)=O [B1] ({FITC-AEEA}-KKQ[R8]QRKRHK[S5]NRKERGHKSPSE[S5]RRS[S5]LWHAR-NH2; staple 4-11, 24-28)		13.8%	19.0%	13.1%	81.8% and 82–85%	829 min	0.26 µM	5 fold	full disappearance of the ds pal-RNA band
